Measurements from ChEMBL document CHEMBL4831493 (Eur J Med Chem, 2021).

Tests used:
Acetylcholinesterase [1] = target: Acetylcholinesterase (Homo sapiens, UniProt P22303); assay: Inhibition of human recombinant AChE preincubated for 1 min in presence of DNTB followed by addition of acetylthiocholine iodide substrate and measured after 20 mins by Ellman's method
Acetylcholinesterase [2] = target: Acetylcholinesterase (Electrophorus electricus, UniProt O42275); assay: Inhibition of electric eel recombinant AChE preincubated for 1 min in presence of DNTB followed by addition of acetylthiocholine iodide substrate and measured after 20 mins by Ellman's method
Acetylcholinesterase (Electrophorus electricus, UniProt O42275), sequence (O42275 whole entry): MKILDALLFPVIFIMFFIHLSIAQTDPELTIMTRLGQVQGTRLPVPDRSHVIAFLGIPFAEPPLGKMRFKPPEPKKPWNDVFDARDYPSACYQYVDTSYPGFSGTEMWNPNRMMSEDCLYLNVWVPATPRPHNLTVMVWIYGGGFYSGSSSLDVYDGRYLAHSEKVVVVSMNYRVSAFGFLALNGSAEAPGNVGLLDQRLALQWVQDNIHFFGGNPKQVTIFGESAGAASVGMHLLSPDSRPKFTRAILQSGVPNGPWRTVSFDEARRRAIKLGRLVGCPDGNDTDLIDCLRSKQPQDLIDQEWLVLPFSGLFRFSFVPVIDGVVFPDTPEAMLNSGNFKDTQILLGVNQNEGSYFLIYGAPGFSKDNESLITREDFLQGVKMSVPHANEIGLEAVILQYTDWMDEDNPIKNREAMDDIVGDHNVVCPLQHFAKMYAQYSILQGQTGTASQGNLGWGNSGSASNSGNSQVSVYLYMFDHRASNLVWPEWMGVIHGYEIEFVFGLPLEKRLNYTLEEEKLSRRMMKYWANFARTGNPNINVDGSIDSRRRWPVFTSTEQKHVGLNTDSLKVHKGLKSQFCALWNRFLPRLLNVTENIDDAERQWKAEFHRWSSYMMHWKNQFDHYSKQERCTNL

[3] = target: Glycogen synthase kinase-3 beta (Homo sapiens, UniProt P49841); assay: Inhibition of human recombinant N-terminal His-tagged GSK3beta expressed in Escherichia coli using RRRPASVPPSPSLS RHS(pS)HQRR as substrate incubated for 30 mins in presence of ATP by Kinase-Glo reagent based luminescence assay
Glycogen synthase kinase-3 beta, sequence (P49841 whole entry): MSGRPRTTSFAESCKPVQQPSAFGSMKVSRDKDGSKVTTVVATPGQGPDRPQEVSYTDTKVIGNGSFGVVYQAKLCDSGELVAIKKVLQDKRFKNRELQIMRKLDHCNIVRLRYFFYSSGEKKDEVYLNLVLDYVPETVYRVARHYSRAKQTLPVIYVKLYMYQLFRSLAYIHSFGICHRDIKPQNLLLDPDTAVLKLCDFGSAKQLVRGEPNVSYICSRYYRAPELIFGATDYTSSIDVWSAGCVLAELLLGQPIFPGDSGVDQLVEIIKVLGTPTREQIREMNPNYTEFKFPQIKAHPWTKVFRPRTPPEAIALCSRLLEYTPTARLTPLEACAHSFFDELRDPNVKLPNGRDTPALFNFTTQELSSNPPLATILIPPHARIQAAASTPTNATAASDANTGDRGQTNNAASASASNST

Acetylcholinesterase (Homo sapiens, UniProt P22303), sequence (P22303 whole entry): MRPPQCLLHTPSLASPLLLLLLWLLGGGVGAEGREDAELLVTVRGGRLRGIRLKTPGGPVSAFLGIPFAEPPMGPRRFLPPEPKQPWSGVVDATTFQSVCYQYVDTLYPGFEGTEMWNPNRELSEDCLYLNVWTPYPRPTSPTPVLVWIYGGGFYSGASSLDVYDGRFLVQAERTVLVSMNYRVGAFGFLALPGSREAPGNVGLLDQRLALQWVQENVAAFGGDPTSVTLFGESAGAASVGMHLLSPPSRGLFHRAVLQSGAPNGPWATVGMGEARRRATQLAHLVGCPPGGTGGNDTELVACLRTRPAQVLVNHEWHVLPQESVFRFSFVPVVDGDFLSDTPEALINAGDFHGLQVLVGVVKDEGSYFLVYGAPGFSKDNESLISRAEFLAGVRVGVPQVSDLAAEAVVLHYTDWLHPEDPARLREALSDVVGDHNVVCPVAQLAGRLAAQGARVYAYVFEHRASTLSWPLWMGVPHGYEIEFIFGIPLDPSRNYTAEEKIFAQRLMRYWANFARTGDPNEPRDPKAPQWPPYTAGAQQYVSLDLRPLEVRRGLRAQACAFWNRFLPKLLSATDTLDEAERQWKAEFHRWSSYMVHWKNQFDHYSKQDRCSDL

Compound | IC50 (Acetylcholinesterase [1]) | IC50 (Acetylcholinesterase [2]) | IC50 [3]
O=C(Nc1cccc(OCC2CCN(Cc3ccccc3)CC2)c1)c1ccnc(NC(=O)C2CC2)c1 | 1.39 µM | 0.843 µM | 9.75 µM
O=C(NCC1CCN(Cc2ccc(F)c(F)c2)CC1)c1cncc(NC(=O)c2ccnc(NC(=O)C3CC3)c2)c1 | 3.07 µM | 1.05 µM | 0.279 µM
COc1cccc(CN2CCC(CNC(=O)c3cncc(NC(=O)c4ccnc(NC(=O)C5CC5)c4)c3)CC2)c1 | > 10 µM | 8.91 µM | 0.126 µM
O=C(NCC1CCN(Cc2ccccc2)CC1)c1cncc(NC(=O)c2ccnc(NC(=O)C3CC3)c2)c1 | 1.1 µM | 1.1 µM | 0.305 µM
O=C(Nc1cncc(OCC2CCN(Cc3ccccc3F)CC2)c1)c1ccnc(NC(=O)C2CC2)c1 | 0.0047 µM | 0.0101 µM | 0.077 µM
O=C(CC1CCN(Cc2ccccc2)CC1)Nc1n[nH]c2cc(-c3cccnc3)ccc12 | 0.509 µM | 0.264 µM | > 10 µM
O=C(NCCC1CCN(Cc2cccc(Cl)c2)CC1)c1cncc(NC(=O)c2ccnc(NC(=O)C3CC3)c2)c1 |  |  | 0.152 µM
O=C(CC1CCN(Cc2ccccc2F)CC1)Nc1n[nH]c2cc(-c3cccnc3)ccc12 | 0.691 µM | 0.39 µM | > 10 µM
O=C(CC1CCN(Cc2ccc(F)cc2)CC1)Nc1n[nH]c2cc(-c3cccnc3)ccc12 | 0.518 µM | 0.216 µM | > 10 µM
O=C(NC1CCN(Cc2ccccc2)CC1)c1cncc(NC(=O)c2ccnc3[nH]ccc23)c1 | 0.358 µM | 0.311 µM | 6.8 µM
O=C(Nc1cncc(C(=O)NC2CCN(Cc3ccccc3)CC2)c1)c1ccnc(NC(=O)C2CC2)c1 | 0.622 µM | 0.704 µM | 0.081 µM
Cc1ccccc1CN1CCC(CNC(=O)c2cncc(NC(=O)c3ccnc(NC(=O)C4CC4)c3)c2)CC1 | 4.09 µM | 3.52 µM | 0.157 µM
CC(=O)Nc1cc(C(=O)Nc2cccc(OCC3CCN(Cc4ccccc4)CC3)c2)ccn1 | > 10 µM | 2.2 µM | > 10 µM
O=C(Nc1cncc(OC2CCN(Cc3ccccc3)CC2)c1)c1ccnc(NC(=O)C2CC2)c1 | > 10 µM | 9.81 µM | 0.734 µM
O=C(Nc1cncc(OCC2CCN(Cc3ccccc3Cl)CC2)c1)c1ccnc(NC(=O)C2CC2)c1 | 0.0816 µM | 0.0972 µM | 0.079 µM
Cc1cccc(CN2CCC(CNC(=O)c3cncc(NC(=O)c4ccnc(NC(=O)C5CC5)c4)c3)CC2)c1 | 6360 µM | 4.16 µM | 0.198 µM
